Tests used:
Rattus norvegicus [1] = test: In vivo area under curve in rat plasma exposure after oral administration 50 mg/kg; format: ADME, organism-based; parameters: dose 50 mg/kg, route oral
Rattus norvegicus [2] = test: In vivo concentration in rat liver exposure 0-8 hour after oral administration 50 mg/kg; format: ADME, organism-based; parameters: dose 50 mg/kg, route oral
[3] = In vivo concentration in rat liver exposure 8 hour after oral administration 50 mg/kg; format: ADME, organism-based; parameters: dose 50 mg/kg, route oral; details: read-out: C
[4] = molecular target: Plasminogen (Rattus norvegicus) (UniProt Q01177); test: Inhibitory activity against plasmin; details: concentration not given here
Sequence of Plasminogen (Rattus norvegicus) (Q01177 97-581 limits assumed): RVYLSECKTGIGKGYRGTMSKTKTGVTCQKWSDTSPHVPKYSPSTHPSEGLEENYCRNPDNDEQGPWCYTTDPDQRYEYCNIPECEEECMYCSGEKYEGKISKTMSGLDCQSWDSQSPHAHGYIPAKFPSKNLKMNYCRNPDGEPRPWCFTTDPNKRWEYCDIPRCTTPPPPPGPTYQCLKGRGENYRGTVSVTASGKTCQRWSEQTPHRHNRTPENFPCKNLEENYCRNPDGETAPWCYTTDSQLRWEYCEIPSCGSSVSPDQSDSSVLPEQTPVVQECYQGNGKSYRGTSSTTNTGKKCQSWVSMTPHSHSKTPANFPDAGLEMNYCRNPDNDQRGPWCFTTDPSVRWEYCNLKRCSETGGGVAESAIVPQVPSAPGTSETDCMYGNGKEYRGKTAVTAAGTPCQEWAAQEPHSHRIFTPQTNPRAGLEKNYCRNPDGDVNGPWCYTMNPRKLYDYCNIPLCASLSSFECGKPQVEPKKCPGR
Sequence of Plasminogen (Rattus norvegicus) (Q01177 582-812 limits assumed): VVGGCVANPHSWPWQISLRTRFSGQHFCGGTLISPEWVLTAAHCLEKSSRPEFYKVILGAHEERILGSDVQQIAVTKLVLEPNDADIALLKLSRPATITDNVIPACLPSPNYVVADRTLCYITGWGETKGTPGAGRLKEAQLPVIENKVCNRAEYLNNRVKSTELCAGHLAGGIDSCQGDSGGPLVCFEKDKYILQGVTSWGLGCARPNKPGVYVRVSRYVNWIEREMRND

[5] = molecular target: Kallikrein-1 (Homo sapiens) (UniProt P06870); test: Inhibitory activity against kallikrein; details: concentration not given here
Sequence of Kallikrein-1 (Homo sapiens) (P06870 25-262 limits assumed): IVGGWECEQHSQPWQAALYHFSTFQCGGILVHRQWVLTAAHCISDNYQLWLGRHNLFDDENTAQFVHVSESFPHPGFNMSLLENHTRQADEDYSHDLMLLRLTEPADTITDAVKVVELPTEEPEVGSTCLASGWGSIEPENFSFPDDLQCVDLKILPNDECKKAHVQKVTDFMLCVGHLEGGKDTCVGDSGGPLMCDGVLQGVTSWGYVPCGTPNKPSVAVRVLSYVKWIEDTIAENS

[6] = molecular target: Prothrombin (Homo sapiens) (UniProt P00734); test: Inhibitory activity against thrombin; details: concentration not given here
Rattus norvegicus [7] = organism: Rattus norvegicus; test: Inhibitory activity against Protease using replicon assay […] at 25 uM concentration
[8] = In vivo concentration in rat plasma exposure at 8 hour after oral administration 50 mg/kg; format: ADME, organism-based; parameters: dose 50 mg/kg, route oral; details: read-out: C
[9] = molecular target: Serine protease 1 (Homo sapiens) (UniProt P07477); test: Inhibitory activity against trypsin; details: concentration not given here
Sequence of Serine protease 1 (Homo sapiens) (P07477 whole entry): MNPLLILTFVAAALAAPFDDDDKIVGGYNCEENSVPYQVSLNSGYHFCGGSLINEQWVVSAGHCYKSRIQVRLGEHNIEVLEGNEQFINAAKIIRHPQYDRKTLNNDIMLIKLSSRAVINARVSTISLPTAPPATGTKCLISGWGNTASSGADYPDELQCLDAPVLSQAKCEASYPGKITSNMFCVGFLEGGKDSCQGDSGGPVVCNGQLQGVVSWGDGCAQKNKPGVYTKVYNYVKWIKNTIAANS

[10] = In vivo maximum concentration in rat plasma exposure after oral administration 50 mg/kg; format: ADME, organism-based; parameters: dose 50 mg/kg, route oral
[11] = system: Hepatitis C virus NS3 protease; test: Inhibitory activity against Protease using replicon assay […] at 25 uM concentration; details: Rattus norvegicus
[12] = system: Hepatitis C virus NS3 protease; test: Cytotoxic activity against Protease in […] Huh-7 cells at 100 uM
Huh-7 (Homo sapiens) = test: Cytotoxic activity against human hepatoma Huh-7 cells at 100 uM concentration

SMILES: CCCC(NC(=O)[C@@H]1[C@H]2CCC[C@H]2CN1C(=O)[C@@H](NC(=O)[C@@H](NC(=O)c1cnccn1)C(C)C)C(C)C)C(=O)C(=O)NC1CC1 (stereo not given in full)
- AUC (Rattus norvegicus [1]): 2.86 µg/h/mL
- Caverage (Rattus norvegicus [2]): 6290 nM
- concentration at 8 h [3]: 500 nM
- inhibition [4]: 5%
- inhibition [5]: 0%
- inhibition [6]: 12%
- inhibition (Rattus norvegicus [7]): 93%
- concentration at 8 h [8]: 10 ng/mL
- inhibition [9]: 0%
- Cmax [10]: 2250 ng/mL

SMILES: CCCC(NC(=O)[C@@H]1[C@H]2CC[C@H](F)[C@H]2CN1C(=O)[C@@H](NC(=O)[C@@H](NC(=O)c1cnccn1)C(C)C)C(C)C)C(=O)C(=O)N[C@@H](Cc1ccccc1)C(=O)O (stereo not given in full)
- inhibition [11]: -8%

SMILES: CCCC(NC(=O)[C@@H]1[C@H]2CC[C@H](F)[C@H]2CN1C(=O)[C@@H](NC(=O)[C@@H](NC(=O)c1cnccn1)C(C)C)C(C)C)C(=O)C(=O)N[C@@H](C)c1ccccc1 (stereo not given in full)
- inhibition [11]: 97%
- inhibition [12]: 33%

SMILES: CCCC(NC(=O)[C@@H]1[C@H]2CCC[C@H]2CN1C(=O)[C@@H](NC(=O)[C@@H](NC(=O)c1cnccn1)C(C)C)C(C)C)C(=O)C(=O)N[C@@H](C)c1ccccc1 (stereo not given in full)
- inhibition (Rattus norvegicus [7]): 97%

SMILES: CCCC(NC(=O)[C@@H]1[C@H]2CC=C[C@H]2CN1C(=O)[C@@H](NC(=O)[C@@H](NC(=O)c1cnccn1)C(C)C)C(C)C)C(=O)C(=O)N[C@@H](C)CC (stereo not given in full)
- inhibition [11]: 91%

SMILES: CCCC(NC(=O)[C@@H]1[C@H]2CCC(F)(F)[C@H]2CN1C(=O)[C@@H](NC(=O)[C@@H](NC(=O)c1cnccn1)C(C)C)C(C)C)C(=O)C(=O)NC1CC1 (stereo not given in full)
- inhibition [11]: 64%

SMILES: CCCC(NC(=O)[C@@H]1[C@H]2CC[C@H](F)[C@H]2CN1C(=O)[C@@H](NC(=O)[C@@H](NC(=O)c1cnccn1)C(C)C)C(C)C)C(=O)C(=O)NC1CC1 (stereo not given in full)
- inhibition [11]: 84%

SMILES: CCCC(NC(=O)[C@@H]1[C@H]2CC[C@@H](OCOC)C2CN1C(=O)[C@@H](NC(=O)[C@@H](NC(=O)c1cnccn1)C(C)C)C(C)C)C(=O)C(=O)N[C@@H](C)c1ccccc1 (stereo not given in full)
- inhibition [11]: 98%

SMILES: CCCC(NC(=O)[C@@H]1[C@H]2CC=C[C@H]2CN1C(=O)[C@@H](NC(=O)[C@@H](NC(=O)c1cnccn1)C(C)C)C(C)C)C(=O)C(=O)N[C@@H](C)c1ccccc1 (stereo not given in full)
- inhibition [11]: 97%
- inhibition (Huh-7 (Homo sapiens)): 33%
